The nature of data set [1]: Otic solution administered by drops to the affected ear of patients complaining of tinnitus. Conditions: every 4-6 hrs. In kind it is in vivo, human.
Test in data set [2]: as above
The data set is classed as in vivo, human. Here is the method:
A group of ten patients complaining of tinnitus were treated with an otic solution comprising about 500 μg/30 ml of neostigmine. One to two drops of the solution was administered to the affected ear about once every 4-6 hours. The patients reported relief within about 20 minutes after initial administration of the otic composition.

Setting [3] is: individual tinnitus patient, morphine 2 mg/30 cc otic solution.
Setting [4] is: individual tinnitus patients, neostigmine 500 μg/30 cc otic solution, every 4-6 hrs.
[5] abbreviates: individual tinnitus patients, stadol 1 mg/30 cc otic solution.

Molecules are shown by their SMILES. “And” between values parts separate entries of the source, which are not always exact repeats. Identical values can stand only once. Bounds are passed on as bounds.

Consider `CN1CC[C@]23c4c5ccc(O)c4O[C@H]2[C@@H](O)C=C[C@H]3[C@H]1C5` [morphine], for which, in data set [1] (setting [3]), the “Results (improvement)” value is listed as 60% and the “Side Effects” value was “None”.
For the compound `CN(C)C(=O)Oc1cccc([N+](C)(C)C)c1` [neostigmine], in data set [2] (group of ten patients, about 500 μg/30 ml otic solution, one to two drops about once every 4-6 hours), the “relief of the tinnitus symptoms reported by patients” value was “significant relief”. The “time to relief after initial administration of the otic composition” value in data set [2] (group of ten patients, about 500 μg/30 ml otic solution, one to two drops to affected ear) is at most 20 min. In data set [2] (setting [4]), the “Results (improvement)” value is 90% and 80% (4×) and 70%; the “Side Effects” value is given as “None”.
On to `Oc1ccc2c(c1)[C@@]13CCCC[C@@]1(O)[C@@H](C2)N(CC1CCC1)CC3` [stadol, butorphanol], for which, in data set [1] (setting [5]), the “Results (improvement)” value was 60% and 80% (2×); the “Side Effects” value is given as “None”.

The record behind these values is US6465442B2, “Topical application of muscarinic and opioid agents for treatment of tinnitus” (priority 1999, dated 2002).
